# Starred links: 1 amine or outer side, 2 acyl side, 3 side chain; linkers in the order of their positions; H or OH if unused. Positions of bridges follow the written chain, without caps; N, C: chain ends. Non-standard residues stand in square brackets, D forms with d. Residues, ends and D or L forms follow the SMILES beside them. Chains are numbered I, II in the order given. Actinocin(9to1) = Cc1c2oc3c(C)ccc(C(=O)[*:1])c3nc-2c(C(=O)[*:2])c(N)c1=O; NMeV = CN[C@H](C(=O)O)C(C)C; Sar = CNCC(=O)O
# Experiments:
# DLC1 = DLC1 protein and mRNA expression; assay type: cell-based, human; details: MCF-7 cells
# Method: MCF-7/Tam-sen, MCF-7/TAMR1 and Ishikawa cells were treated with E2 (10^−9M) or Tam (10^−9M) for 24 h, and cell lysates were assayed for DLC1 and Pak1 protein expression. […] FIG. 21C: Effect of different periods of E2 treatment and cycloheximide (CHX) and Actinomycin D (ACTD) treatment on the ability of E2 to upregulate DLC1 mRNA in MCF-7 cells.
# DLC1/PIN = experiment: In vivo 32P-orthophosphate labeling and immunoprecipitation of T7-DLC1/PIN; assay type: cell-based, human; details: MCF-7 cells, EGF treatment
# Method: FIGS. 2A–2G—MapDLC1/PINg of interaction domains of Pak1 and DLC1/PIN. FIG. 2A: Identification of Pak1 domains that interact with DLC1/PIN. GST-Pak1 fusion proteins containing wild-type (amino acids 1–545), kinase domain (amino acids 270–545), N-terminal domain (amino acids 1–132), PIX binding domain (amino acids 132–270), Nck-binding domain (amino acids 1–75), Cdc42/Rac-interacting (CRIB) domain (amino acids 52–132), and auto-inhibitory domain (amino acids 75–149) were incubated with in vitro translated DLC1/PIN (amino acids 1–89), and binding was analyzed by GST pull-down assay. FIG. 2B: Identification of the DLC1/PIN region that is involved in the binding of Pak1. GST-fusions of various lengths of DLC1/PIN were used in the GST pull-down assay using ^35S-labelled Pak1 (amino acids 1–545). FIGS. 2C–2G—Pak1 phosphorylation of DLC1/PIN. FIG. 2C: In vitro kinase assay using GST-DLC1/PIN as a substrate and purified bacterially expressed Pak1 as an enzyme. MBP was used as a positive control. FIG. 2D: ZR75R cells stably expressing T7-DLC1/PIN were labeled in vivo with ^32P-orthophosphate, serum starved, treated with EGF or HRG, and immunoprecipitated and phosphorylation status of DLC1/PIN was visualized by autoradiography. […] Cells were metabolically labeled with ^32P orthophosphate, treated with or without EGF (1 nM) and phosphorylation of T7-DLC1/PIN was analyzed by immunoprecipitation. […]
# DLC1-ER interaction = experiment: Coimmunoprecipitation of DLC1 with ER; assay type: cell-based, human; details: growth factor stimulation
# Method: In vitro-translated ^35ER were incubated with GST-DLC1, and analyzed by SDS-PAGE and autoradiography. FIG. 13B: Identification of ER domains that interact with DLC1. GST-ER fusion proteins containing different deletion constructs were incubated with in vitro-translated 35S-DLC1 (aa 1-89), and binding was analyzed by GST pull-down assay. FIG. 13C: Mapping of the ER-binding region in DLC1. GST-fusions of various DLC1 deletion constructs were incubated with in vitro-translated ^35S-ER, and binding was analyzed by GST pull-down assay. […] Cell lysates from Ishikawa cells was immunoprecipitated (IP) with anti-ERá mAb and immunoblotted with anti-DLC1 or ER Abs. […] Cell lysates from MCF-7/TAM-sen or Ishikawa cells were treated with Tam (10^−9M) for 24 h, and IP with anti-ERá mAb and immunoblotted with anti-DLC1 or ER Abs. […] MCF-7/DLC1 cells were treated with or without Dox for 24 h and then treated with E2 (10^−9M) or Tam (10^−8M) for 24 h, and IP with anti-ERá mAb and immunoblotted with anti-DLC1 or ER Abs. FIG. 13G: Characterization of MCF-7 cells expressing T7-DLC1-Ser88A mutant under a tetracycline-inducible promoter. […] MCF-7/DLC1 and MCF-7/DLC1-Ser88A cells were treated with or without Dox for 24 h and cell lysates were IP with anti-ERá mAb and blotted with anti-DLC1, ERá and T7 Abs.
# To this end, MCF-7 cells expressing a T7-DLC1 mutant in which Ser88 and amino acid 89 were deleted under a tet-inducible promoter (MCF-7/DLC1-1-87 mutant) were generated (FIG. 13G).
# MDA-MB231 cells = experiment: Vesicle formation and DLC1/PIN-Pak1 colocalization after growth factor stimulation; assay type: cell-based, human; details: serum-starved cells, 20 min
# SKBR-3 cells = experiment: Pak1-mediated macropinocytosis, vesicle formation by confocal microscopy; assay type: cell-based, human; details: cotransfected with GFP-Pak1
# Method: FIG. 3—Requirement of DLC1/PIN in Pak1 mediated macropinocytosis. SKBR-3 cells were cotransfected with RFP-DLC1/PIN and GFP-Pak1 (upper panel), RFP-DLC1/PIN-S88A, and GFP-Pak1 (middle panel) and RFP-DLC1-1-66, and GFP-Pak1 (lower panel). Vesicle formation and localization of GFP and RFP proteins were analyzed by confocal microscopy. Ten randomly selected fields were analyzed for each condition. The experiment was repeated twice with similar results. Quantitation of vesicles formation was done using the following scoring system. −, cells containing 0–9 vesicles; +, cells containing 10–20 vesicles; and ++, cells containing >20 vesicles.
# Requirement of DLC1/PIN in Pak1 mediated macropinocytosis. […] The inventors have used the fluorescein isothiocyanate (FITC)-labeled Dextran as a marker of endocytosis using a well-established dextran beads uptake assay (Dharmawardhane et al., 2000). […]
# SK-BR3 cells were cotransfected with RFP-DLC1 and GFP-Pak1 (upper panel), RFP-DLC1-S88A and GFP-Pak1 (middle panel), and RFP-DLC8-1-66 and GFP-Pak1 (bottom panel). Vesicle formation and localization of GFP and RFP proteins were analyzed by confocal microscopy. Ten randomly selected fields were analyzed for each condition. […]
# NIH3T3 cells = experiment: UV-induced apoptosis, Lamin A/C nuclear integrity scoring; assay type: cell-based, murine
# Method: FIGS. 5A–5C—Requirement of DLC1/PIN and Pak1 interaction in cell proliferation and survival. FIG. 5A: Equal number of cells ZR75R stable cells expressing DLC1/PIN wild type or DLC1/PIN^del88-89 mutant were plated and cell proliferation was determined by trypsinizing and counting cells using a coulter counter. Each colne was plated in triplicate and experiment was repeated twice with similar results. FIG. 5B: Cell cycle progression of DLC1/PIN wild type or mutant clones was analyzed by FACS analysis. […] For example, a smooth nuclear membrane was scored as nonapoptotic, as opposed to membrane blebbing or rupture, which was scored as apoptotic. Nuclei committed to enter mitosis were not scored in either of these groups because they were easily identified for their specific “pulverized” pattern of Lamin A/C staining. Ten randomly selected fields were analyzed for each condition. […]
# DLC1/PIN regulation of cell growth and survival. […] After 10 h, apoptosis was quantitated by scoring the integrity of the nuclear membrane in cells expressing both RFP and myc tags to detect DLC/DLC1/PIN and Pak1 respectively (FIG. 5D).
molecule,measurement,setting,value
"C[C@]12CC[C@@H]3c4ccc(O)cc4C[C@@H](CCCCCCCCC[S+]([O-])CCCC(F)(F)C(F)(F)F)[C@H]3[C@@H]1CC[C@@H]2O (stereo partly drawn) [ICI 182,780]",estrogen-induced DLC1 expression,DLC1,effectively blocked
"Cc1c2oc3c(C)ccc(C(=O)N[C@@H]4C(=O)N[C@H](C(C)C)C(=O)N5CCC[C@H]5C(=O)N(C)CC(=O)N(C)[C@@H](C(C)C)C(=O)O[C@@H]4C)c3nc-2c(C(=O)N[C@@H]2C(=O)N[C@H](C(C)C)C(=O)N3CCC[C@H]3C(=O)N(C)CC(=O)N(C)[C@@H](C(C)C)C(=O)O[C@@H]2C)c(N)c1=O [actinomycin D] (I: T[dV]P[Sar][NMeV] / II: T[dV]P[Sar][NMeV]; ester I:1-I:C, II:1-II:C; linker I:N-II:N via Actinocin(9to1))",estrogen-induced DLC1 expression,DLC1,effectively blocked
"EGF: epidermal growth factor, physiologic Pak1 activator",DLC1/PIN phosphorylation,DLC1/PIN,stimulated DLC1/PIN phosphorylation
same,interaction of DLC1 with ER,DLC1-ER interaction; tamoxifen-resistant Ishikawa cells,promotes
same,interaction of DLC1 with ER,DLC1-ER interaction; tamoxifen-sensitive MCF-7 cells,not
same,vesicle-like structures with colocalization of DLC1/PIN and Pak1,MDA-MB231 cells,substantial enhancement of vesicle-like structures
"S88A DLC1/PIN: DLC1/PIN mutant, serine 88 to alanine, lacking the Pak1 phosphorylation site",Pak1-induced vesicle formation,SKBR-3 cells,substantially interfered
same,UV-induced apoptosis substantially reduced,NIH3T3 cells; 10 h after UV-irradiation,not
same,protection from UV-induced apoptosis by overexpression of active Pak1,NIH3T3 cells; cotransfected with catalytically active Pak1,unable to protect

# Source: patent publication US7067633B2, “Targeting cellular entry, cell survival, and pathogenicity by dynein light chain 1/PIN in human cells” (Board of Regents, The University of Texas System, priority 2003, dated 2006)
